From patent US20150344457A1, “METHODS OF INHIBITING PRMT5” (EPIZYME, INC., priority 2012, published 2015)

Each molecule was assayed against T1, PRMT5/MEP50 (Homo sapiens, UniProt O14744) (assay: PRMT5 Biochemical Assay (PRMT5/MEP50 enzyme assay on peptide substrate, 3H-SAM Flashplate)). Details: Biochemical IC50.
T1 construct: Expressed full-length human Flag-PRMT5/6His-MeP50 protein complex was purified; made in house; host or cells: Spodoptera frugiperda (SF9) insect cells, baculovirus (pDEST8)
T1 sequence (O14744 with tags, fused parts or gaps): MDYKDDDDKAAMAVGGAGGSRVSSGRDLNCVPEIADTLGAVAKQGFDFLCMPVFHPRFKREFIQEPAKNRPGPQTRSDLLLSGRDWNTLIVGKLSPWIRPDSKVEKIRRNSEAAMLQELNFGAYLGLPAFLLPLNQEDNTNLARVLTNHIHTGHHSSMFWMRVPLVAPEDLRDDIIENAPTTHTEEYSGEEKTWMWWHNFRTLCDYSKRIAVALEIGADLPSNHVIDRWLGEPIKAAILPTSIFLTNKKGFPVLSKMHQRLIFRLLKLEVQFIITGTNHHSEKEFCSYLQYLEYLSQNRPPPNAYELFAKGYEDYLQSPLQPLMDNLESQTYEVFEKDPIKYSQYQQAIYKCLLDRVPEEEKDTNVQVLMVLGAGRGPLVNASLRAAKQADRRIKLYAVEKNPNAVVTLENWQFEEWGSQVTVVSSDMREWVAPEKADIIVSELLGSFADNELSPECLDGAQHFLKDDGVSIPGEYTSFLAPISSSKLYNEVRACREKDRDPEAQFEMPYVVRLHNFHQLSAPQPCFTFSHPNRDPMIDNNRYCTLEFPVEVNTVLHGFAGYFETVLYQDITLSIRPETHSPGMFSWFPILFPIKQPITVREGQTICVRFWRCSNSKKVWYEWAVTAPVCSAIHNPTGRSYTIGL
T1 sequence (Q9BQA1 with tags, fused parts or gaps partner limits assumed): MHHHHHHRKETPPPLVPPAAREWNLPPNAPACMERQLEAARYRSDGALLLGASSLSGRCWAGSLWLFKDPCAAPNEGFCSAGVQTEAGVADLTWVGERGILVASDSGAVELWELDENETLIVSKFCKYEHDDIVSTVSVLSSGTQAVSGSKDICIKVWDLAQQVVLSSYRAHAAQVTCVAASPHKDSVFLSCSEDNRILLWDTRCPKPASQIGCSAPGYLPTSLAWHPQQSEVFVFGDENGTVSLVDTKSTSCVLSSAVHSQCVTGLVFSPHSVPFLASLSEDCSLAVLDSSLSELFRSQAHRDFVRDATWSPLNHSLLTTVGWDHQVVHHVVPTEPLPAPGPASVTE

SMILES	IC50 [nM]
O=C(COc1cccc2cccnc12)NCC(O)CN1CCc2ccccc2C1 (centres unmarked) [Compound A6]	< 100
O=C(COc1cccc2cccnc12)NC[C@H](O)CN1CCc2ccccc2C1 [Compound A44]	101 to 1000
O=C(COc1cccc2cccnc12)NC[C@@H](O)CN1CCc2ccccc2C1 [Compound A45]	< 100

Same assay, conditions: Table A-2; PRMT5/MEP50 4 nM, 3H-SAM 75 nM, peptide 40 nM; read-out: Biochemical IC50

SMILES	IC50 [nM]
O=C(COc1cccc(F)c1)NCC(O)CN1CCc2ccccc2C1 (centres unmarked) [Compound A7]	101 to 1000
N#Cc1cccc(OCC(=O)NCC(O)CN2CCc3ccccc3C2)c1 (centres unmarked) [Compound A8]	101 to 1000
Cc1ccc(OCC(=O)NCC(O)CN2CCc3ccccc3C2)cc1 (centres unmarked) [Compound A9]	101 to 1000
N#Cc1ccc(OCC(=O)NCC(O)CN2CCc3ccccc3C2)cc1 (centres unmarked) [Compound A11]	101 to 1000
COc1ccc(OCC(=O)NCC(O)CN2CCc3ccccc3C2)cc1 (centres unmarked) [Compound A12]	101 to 1000
Cc1ccccc1OCC(=O)NCC(O)CN1CCc2ccccc2C1 (centres unmarked) [Compound A15]	101 to 1000
O=C(COc1ccccc1F)NCC(O)CN1CCc2ccccc2C1 (centres unmarked) [Compound A16]	101 to 1000
N#Cc1ccccc1OCC(=O)NCC(O)CN1CCc2ccccc2C1 (centres unmarked) [Compound A17]	101 to 1000
O=C(CNc1ccccc1)NCC(O)CN1CCc2ccccc2C1 (centres unmarked) [Compound A18]	1000 to 10000
CC(Oc1ccccc1)C(=O)NCC(O)CN1CCc2ccccc2C1 (centres unmarked) [Compound A19]	< 100
COc1cccc(OCC(=O)NCC(O)CN2CCc3ccccc3C2)c1 (centres unmarked) [Compound A20]	< 100
CC(=O)Nc1ccc(OCC(=O)NCC(O)CN2CCc3ccccc3C2)cc1 (centres unmarked) [Compound A21]	101 to 1000
COc1ccccc1OCC(=O)NCC(O)CN1CCc2ccccc2C1 (centres unmarked) [Compound A22]	< 100
Cn1ncc2ccc(OCC(=O)NCC(O)CN3CCc4ccccc4C3)cc21 (centres unmarked) [Compound A23]	< 100
Cc1cccc(OCC(=O)NCC(O)CN2CCc3ccccc3C2)c1 (centres unmarked) [Compound A26]	< 100
CN(C)c1cccc(OCC(=O)NCC(O)CN2CCc3ccccc3C2)c1 (centres unmarked) [Compound A27]	< 100
CS(=O)(=O)Nc1cccc(OCC(=O)NCC(O)CN2CCc3ccccc3C2)c1 (centres unmarked) [Compound A28]	< 100
NC(=O)c1ccccc1OCC(=O)NCC(O)CN1CCc2ccccc2C1 (centres unmarked) [Compound A29]	101 to 1000
CC(=O)Nc1cccc(OCC(=O)NCC(O)CN2CCc3ccccc3C2)c1 (centres unmarked) [Compound A31]	1000 to 10000
O=C(COc1ccccc1)NC[C@H](O)CN1CCc2ccccc2C1 [Compound A32]	101 to 1000
NC(=O)c1cccc(OCC(=O)NCC(O)CN2CCc3ccccc3C2)c1 (centres unmarked) [Compound A34]	101 to 1000
CN(C)c1ccc(OCC(=O)NCC(O)CN2CCc3ccccc3C2)cc1 (centres unmarked) [Compound A35]	101 to 1000
CC(=O)Nc1ccccc1OCC(=O)NCC(O)CN1CCc2ccccc2C1 (centres unmarked) [Compound A36]	101 to 1000
CS(=O)(=O)c1ccccc1OCC(=O)NCC(O)CN1CCc2ccccc2C1 (centres unmarked) [Compound A37]	< 100
CN(C)c1ccccc1OCC(=O)NCC(O)CN1CCc2ccccc2C1 (centres unmarked) [Compound A38]	< 100
CC(Oc1cccc2cccnc12)C(=O)NCC(O)CN1CCc2ccccc2C1 (centres unmarked) [Compound A39]	< 100

SMILES	IC50 [nM]
O=C(COc1ccccc1C1CCCCC1)NCC(O)CN1CCc2ccccc2C1 (centres unmarked) [Compound A40]	< 100
CS(=O)(=O)Nc1ccc(OCC(=O)NCC(O)CN2CCc3ccccc3C2)cc1 (centres unmarked) [Compound A42]	101 to 1000
CC(C)(Oc1cccc2cccnc12)C(=O)NCC(O)CN1CCc2ccccc2C1 (centres unmarked) [Compound A43]	< 100
Cn1cnc2cc(OCC(=O)NCC(O)CN3CCc4ccccc4C3)ccc21 (centres unmarked) [Compound A46]	101 to 1000
CS(=O)(=O)c1cccc(OCC(=O)NCC(O)CN2CCc3ccccc3C2)c1 (centres unmarked) [Compound A47]	< 100
O=C(COc1cccc2ccc(N3CCOCC3)nc12)NCC(O)CN1CCc2ccccc2C1 (centres unmarked) [Compound A48]	< 100
O=C(COc1ccccc1N1CCOCC1)NCC(O)CN1CCc2ccccc2C1 (centres unmarked) [Compound A49]	< 100
O=C(COc1ccccc1-c1cc[nH]n1)NCC(O)CN1CCc2ccccc2C1 (centres unmarked) [Compound A50]	< 100
CS(=O)(=O)Nc1ccccc1OCC(=O)NCC(O)CN1CCc2ccccc2C1 (centres unmarked) [Compound A53]	< 100
O=C(COc1cccc2c1CCCC2)NCC(O)CN1CCc2ccccc2C1 (centres unmarked) [Compound A64]	< 100
NS(=O)(=O)c1ccccc1OCC(=O)NCC(O)CN1CCc2ccccc2C1 (centres unmarked) [Compound A65]	< 100
O=C(COc1cccc2ccccc12)NCC(O)CN1CCc2ccccc2C1 (centres unmarked) [Compound A66]	< 100
O=C(COc1ccccc1-c1cc[nH]n1)NC[C@@H](O)CN1CCc2ccccc2C1 [Compound A67]	< 100
O=C(COc1ccccc1-c1cc[nH]n1)NC[C@H](O)CN1CCc2ccccc2C1 [Compound A68]	< 100
O=C(COc1ccc2ncn(C3CCNCC3)c2c1)NCC(O)CN1CCc2ccccc2C1 (centres unmarked) [Compound A70]	< 100
CN1CCC(n2cnc3ccc(OCC(=O)NCC(O)CN4CCc5ccccc5C4)cc32)CC1 (centres unmarked) [Compound A71]	< 100
C[C@@H](Oc1cccc2cccnc12)C(=O)NC[C@H](O)CN1CCc2ccccc2C1 [Compound A73]	< 100
C[C@@H](Oc1cccc2cccnc12)C(=O)NC[C@@H](O)CN1CCc2ccccc2C1 [Compound A74]	< 100
CN1CCC(n2ncc3cc(OCC(=O)NCC(O)CN4CCc5ccccc5C4)ccc32)C1 (centres unmarked) [Compound A96]	< 100
COc1ccc2cccc(OCC(=O)NC[C@H](O)CN3CCc4ccccc4C3)c2n1 [Compound A97]	101 to 1000
COc1ccc2cccc(OCC(=O)NC[C@@H](O)CN3CCc4ccccc4C3)c2n1 [Compound A98]	< 100
CN1CCc2c(cccc2OCC(=O)NCC(O)CN2CCc3ccccc3C2)C1 (centres unmarked) [Compound A99]	< 100
O=C(COc1cccc2c1OCCO2)NCC(O)CN1CCc2ccccc2C1 (centres unmarked) [Compound A100]	< 100
CC(=O)N1CCc2c(cccc2OCC(=O)NCC(O)CN2CCc3ccccc3C2)C1 (centres unmarked) [Compound A101]	< 100
CS(=O)(=O)N1CCc2c(cccc2OCC(=O)NCC(O)CN2CCc3ccccc3C2)C1 (centres unmarked) [Compound A102]	< 100
O=C(COc1ccccc1C1CCNCC1)NCC(O)CN1CCc2ccccc2C1 (centres unmarked) [Compound A103]	< 100

SMILES	IC50 [nM]
CN(C)c1ccc2cccc(OCC(=O)NC[C@H](O)CN3CCc4ccccc4C3)c2n1 [Compound A104]	101 to 1000
CN(C)c1ccc2cccc(OCC(=O)NC[C@@H](O)CN3CCc4ccccc4C3)c2n1 [Compound A105]	< 100
CS(=O)(=O)N1CCN(c2ccccc2OCC(=O)NCC(O)CN2CCc3ccccc3C2)CC1 (centres unmarked) [Compound A106]	101 to 1000
O=C(COc1ccccc1S(=O)(=O)N1CCNCC1)NCC(O)CN1CCc2ccccc2C1 (centres unmarked) [Compound A107]	< 100
CN1CCN(S(=O)(=O)c2ccccc2OCC(=O)NCC(O)CN2CCc3ccccc3C2)CC1 (centres unmarked) [Compound A108]	< 100
CN(C)S(=O)(=O)c1ccccc1OCC(=O)NCC(O)CN1CCc2ccccc2C1 (centres unmarked) [Compound A109]	< 100
O=C(COc1ccccc1S(=O)(=O)N1CCCC1)NCC(O)CN1CCc2ccccc2C1 (centres unmarked) [Compound A110]	< 100
O=C(COc1ccccc1S(=O)(=O)N1CCC(O)C1)NCC(O)CN1CCc2ccccc2C1 (centres unmarked) [Compound A111]	< 100
CNC(=O)c1ccccc1OCC(=O)NCC(O)CN1CCc2ccccc2C1 (centres unmarked) [Compound A112]	101 to 1000
CN(C)C(=O)c1ccccc1OCC(=O)NCC(O)CN1CCc2ccccc2C1 (centres unmarked) [Compound A113]	101 to 1000
CC(Oc1ccccc1S(C)(=O)=O)C(=O)NCC(O)CN1CCc2ccccc2C1 (centres unmarked) [Compound A114]	101 to 1000
O=C(COc1ccccc1C1CCNC1)NCC(O)CN1CCc2ccccc2C1 (centres unmarked) [Compound A116]	1000 to 10000
O=C(COc1ccccc1C1CCCNC1)NCC(O)CN1CCc2ccccc2C1 (centres unmarked) [Compound A117]	101 to 1000
Cn1cc2c(OCC(=O)NCC(O)CN3CCc4ccccc4C3)cccc2n1 (centres unmarked) [Compound A118]	101 to 1000
O=C(COc1cccc2c1CNCC2)NCC(O)CN1CCc2ccccc2C1 (centres unmarked) [Compound A119]	< 100
CN1CCc2cccc(OCC(=O)NCC(O)CN3CCc4ccccc4C3)c2C1 (centres unmarked) [Compound A120]	101 to 1000
CC(=O)N1CCN(S(=O)(=O)c2ccccc2OCC(=O)NCC(O)CN2CCc3ccccc3C2)CC1 (centres unmarked) [Compound A122]	101 to 1000
CNS(=O)(=O)c1ccccc1OCC(=O)NCC(O)CN1CCc2ccccc2C1 (centres unmarked) [Compound A123]	< 100
O=C(COc1cccc2c1OCC(=O)N2)NCC(O)CN1CCc2ccccc2C1 (centres unmarked) [Compound A124]	1000 to 10000
CN(C)c1ncccc1OCC(=O)NCC(O)CN1CCc2ccccc2C1 (centres unmarked) [Compound A127]	101 to 1000
O=C(COc1cccc2ncc(=O)[nH]c12)NCC(O)CN1CCc2ccccc2C1 (centres unmarked) [Compound A129]	101 to 1000
CN1CCCC(c2ccccc2OCC(=O)NCC(O)CN2CCc3ccccc3C2)C1 (centres unmarked) [Compound A130]	< 100
CN1CCC(c2ccccc2OCC(=O)NCC(O)CN2CCc3ccccc3C2)CC1 (centres unmarked) [Compound A134]	101 to 1000
O=C(COc1ccccc1-c1ncc[nH]1)NCC(O)CN1CCc2ccccc2C1 (centres unmarked) [Compound A137]	101 to 1000
CN(c1cccc(OCC(=O)NCC(O)CN2CCc3ccccc3C2)c1)S(C)(=O)=O (centres unmarked) [Compound A142]	101 to 1000
